Values joined by “and” are separate entries in the source; they are usually repeats but may differ in a detail not shown here. Equal entries are not always repeated.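 Method: 48-hour compound exposure of cells in 96-well plates, five concentrations, linear interpolation of endpoints. Abbreviation: GI50, concentration required for 50% inhibition of growth. The concentration for full growth arrest is given as TGI.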
Columns and labels:
Experiment in all cases: DTP human tumour cell line panel, 48 h
[1] = tested on: UO-31 renal
[2] = tested on: UACC-62 melanoma
[3] = tested on: MALME-3M melanoma
[4] = tested on: UACC-257 melanoma
[5] = tested on: SW-620 colon
[6] = tested on: HCC-2998 colon
[7] = tested on: A498 renal
[8] = tested on: HCT-15 colon

| Structure (SMILES) | GI50 [1] | TGI [1] | GI50 [2] | TGI [2] | GI50 [3] | TGI [3] | GI50 [4] | TGI [4] | GI50 [5] | TGI [5] | GI50 [6] | TGI [6] | GI50 [7] | TGI [7] | GI50 [8] | TGI [8] |
| --- | --- | --- | --- | --- | --- | --- | --- | --- | --- | --- | --- | --- | --- | --- | --- | --- |
| O=C(c1ccccc1)c1nc2ccc(C(F)(F)F)cc2[n+]([O-])c1C(F)(F)F | 23.8 µM | > 100 µM | 33.7 µM | > 100 µM | 47.6 µM | > 100 µM | 22.7 µM | > 100 µM | 47.5 µM | > 100 µM | 30.1 µM | > 100 µM | 13.2 µM | 45.2 µM | 35.1 µM | > 100 µM |
| COc1ccc(C(=O)COc2cccc(/C=C3\CSc4ccc(C)cc4C3=O)c2)cc1 | 19.9 µM | > 100 µM | 14.2 µM | > 100 µM | 41 µM | > 100 µM | 49.2 µM | > 100 µM | 2.03 µM | 4.74 µM | – | – | > 100 µM | > 100 µM | 11.7 µM | > 100 µM |
| O=C(CCCCCCSc1nc(-c2ccc(Cl)cc2)cc(-c2ccc(Cl)cc2)n1)NO | 0.735 µM | 2.42 µM | 1.26 µM | 4.18 µM | 1.16 µM | 4.45 µM | 2.15 µM | > 50 µM | 1.71 µM | 24.2 µM | 4.64 µM | 17 µM | 1.03 µM | 4.05 µM | 1.76 µM | > 50 µM |
| O=C1c2c(O)cc(O)cc2OC(c2ccc(O)cc2O)C1O (stereo not drawn) | > 100 µM | > 100 µM | > 100 µM | > 100 µM | > 100 µM | > 100 µM | > 100 µM | > 100 µM | > 100 µM | > 100 µM | > 100 µM | > 100 µM | > 100 µM | > 100 µM | > 100 µM | > 100 µM |
| Cc1c(NC(=O)OC[C@@H]2COCCN2)cn2ncnc(Nc3ccc4c(cnn4Cc4cccc(F)c4)c3)c12 | 1.25 µM and 1.55 µM | > 10 µM and 16.5 µM | > 10 µM and 4.82 µM | > 10 µM and 18.7 µM | > 10 µM and 10.5 µM | > 10 µM and 31.2 µM | > 10 µM and 5.34 µM | > 10 µM and 18.2 µM | > 10 µM and 10.5 µM | > 10 µM and 24.6 µM | > 10 µM and 12 µM | > 10 µM and 25 µM | 0.532 µM and 1.02 µM | > 10 µM and 15.5 µM | 5.81 µM and 6.14 µM | > 10 µM and 21.4 µM |
| COc1cccc2[nH]c(-c3ccccn3)nc12 | – | > 100 µM | – | > 100 µM | – | > 100 µM | – | > 100 µM | – | > 100 µM | – | > 100 µM | – | > 100 µM | – | > 100 µM |
| C=C1C(=O)O[C@H]2[C@H]1CC/C(COC(=O)c1ccc(C#N)cc1)=C\CC[C@@]1(C)O[C@@H]21 | 1.57 µM | 3.34 µM | 1.95 µM | 4.33 µM | 2.04 µM | 4.16 µM | 1.69 µM | 4.1 µM | 1.27 µM | 2.88 µM | 4.1 µM | 14.3 µM | 15.4 µM | 30 µM | 1.44 µM | 3.22 µM |
| COc1ccc(-c2ccc(/C=N/n3c(C)nn(CN4CCN(C)CC4)c3=S)o2)c([N+](=O)[O-])c1 | > 100 µM | > 100 µM | 55.4 µM | > 100 µM | 44.6 µM | > 100 µM | – | – | > 100 µM | > 100 µM | 34.7 µM | > 100 µM | – | – | 28.7 µM | > 100 µM |
| CCC1CCc2nc3sc(C(=O)Nc4ccccc4C)c(N)c3cc2C1 (stereo not drawn) | 0.998 µM | > 100 µM | 0.329 µM | > 100 µM | – | – | 0.486 µM | > 100 µM | 0.388 µM | > 100 µM | 4.42 µM | > 100 µM | 0.313 µM | > 100 µM | 0.339 µM | > 100 µM |
| CSc1ccc(/C=C/c2ccnc3ccccc23)cc1 | – | 26.5 µM | – | – | – | 32.6 µM | – | 32.9 µM | – | 27 µM | – | 27.4 µM | – | 29.2 µM | – | 25.7 µM |
| Cn1c(=S)c2[nH]c(SCCN3CCCC3)nc2n(C)c1=O | – | > 100 µM | – | > 100 µM | – | > 100 µM | – | > 100 µM | – | > 100 µM | – | – | – | > 100 µM | – | > 100 µM |
| Nc1nnc(Cn2c(-c3ccccc3)nc3ccc(Br)cc3c2=O)s1 | > 100 µM | > 100 µM | 15.2 µM | > 100 µM | – | – | – | – | 36.1 µM | > 100 µM | 42.6 µM | > 100 µM | 15.1 µM | 74 µM | 31.6 µM | > 100 µM |
| CNC1C(O)C(OC2C(N)CC(N)C(OC3OC(C(C)O)C(O)C(O)C3N)C2O)OCC1(C)O (stereo not drawn) | – | > 100 µM | – | > 100 µM | – | – | – | – | – | > 100 µM | – | > 100 µM | – | > 100 µM | – | > 100 µM |
| CC(=O)OCC1O[C@@H]([S-])C(OC(C)=O)[C@H](OC(C)=O)[C@@H]1OC(C)=O.[Au+].c1ccc(CN2[CH-]N(Cc3ccccc3)C(c3ccccc3)=C2c2ccccc2)cc1 | 1.95 µM | 4.47 µM | 1.76 µM | 3.47 µM | 1.77 µM | 4.06 µM | 1.84 µM | 4.05 µM | – | – | 1.96 µM | 3.66 µM | 2.06 µM | 4.02 µM | 1.47 µM | 2.94 µM |
| COc1ccc(-c2c(-c3cc(OC)c4c(c3)OCO4)noc2N)cc1 | 0.463 µM | 35.5 µM | 0.05 µM | 20.7 µM | – | – | – | – | 0.0289 µM | > 100 µM | 0.11 µM | 18.3 µM | 0.0268 µM | 0.342 µM | 0.0431 µM | > 100 µM |
| C[C@H]1C(Oc2ccc(O)cc2)OC2OC3(C)CCC4[C@H](C)CCC1C24OO3 (stereo partly drawn) | 11 µM | 26.2 µM | 12.3 µM | 25.5 µM | 14.1 µM | 28.9 µM | 13.1 µM | 28.4 µM | 8.74 µM | 43.2 µM | – | – | 16.7 µM | 31.2 µM | 2.36 µM | 23.8 µM |
| Cc1nc2n(c(=O)c1CCN1CCC(c3noc4cc(F)ccc34)CC1)CCCC2 | > 50 µM | > 50 µM | > 50 µM | > 50 µM | > 50 µM | > 50 µM | – | – | > 50 µM | > 50 µM | > 50 µM | > 50 µM | > 50 µM | > 50 µM | > 50 µM | > 50 µM |
| CCCCCCCC(=O)SCC/C=C/[C@@H]1CC(=O)NCc2nc(co2)C2=N[C@@](C)(CS2)C(=O)N[C@@H](C(C)C)C(=O)O1 | 0.043 µM | 0.487 µM | 0.00917 µM | 0.0536 µM | 0.0112 µM | > 50 µM | – | – | 0.0423 µM | 1.9 µM | 0.0196 µM | 0.216 µM | 0.0096 µM | 0.0396 µM | 0.233 µM | > 20.4 µM |
